Laboratory results from patent US4690919A, “Benzoxazinorifamycin derivative, process for preparing the same and antibacterial agent containing the same” (Kanegafuchi Kagaku Kogyo Kabushiki Kaisha, priority 1985, dated 1987).
Values after ≈ are worked out from the molar mass of the structure shown. Where two headings read alike, the source gives them in different places.

Legend:
[1] = test system: Mycobacterium smegmatis ATCC 607; assay: Antibacterial activity (MIC), standard method of Japan Society of Chemotherapy; format: cell-based; settings: Mycolicibacterium smegmatis
From the text: (§1) The results obtained from the typical compounds are shown in Table 2 as the minimum inhibitory concentration (MIC, μg/ml). […] In Table 2, Test compound No. corresponds to derivative No. in Table 1.

[2] = test system: Staphylococcus aureus IFO 12732; assay: as above; format: cell-based
From the text: as §1

[3] = test system: Escherichia coli IFO 12734; assay: as above; format: cell-based; settings: IFO12734, read-out: minimum inhibitory concentration (MIC)
From the text: as §1

[4] = test system: Micrococcus luteus IFO 12708; assay: as above; format: cell-based
From the text: as §1

[5] = test system: Bacillus subtilis IFO 3134; assay: as above; format: cell-based
From the text: as §1

[6] = test system: Klebsiella pneumoniae IFO 3512; assay: as above; format: cell-based
From the text: as §1

[7] = Concentration in serum after oral administration to rats; settings: rat, 20 mg/kg
[8] = ATCC607, Mycobacterium smegmatis ATCC 607, read-out: minimum inhibitory concentration (MIC)
[9] = IFO12732, Staphylococcus aureus IFO 12732, read-out: minimum inhibitory concentration (MIC)
[10] = IFO12708, Micrococcus luteus IFO 12708, read-out: minimum inhibitory concentration (MIC)
[11] = IFO3134, Bacillus subtilis IFO 3134, read-out: minimum inhibitory concentration (MIC)
[12] = IFO3512, Klebsiella pneumoniae IFO 3512, read-out: minimum inhibitory concentration (MIC)

Row | Structure (SMILES) | MIC ([1]; ATCC607, read-out: minimum inhibitory concentration (MIC)) | MIC ([2]; Staphylococcus aureus, IFO12732, read-out: minimum inhibitory concentration (MIC)) | MIC [3] | MIC ([4]; Micrococcus luteus, IFO12708, read-out: minimum inhibitory concentration (MIC)) | MIC ([5]; Bacillus subtilis, IFO3134, read-out: minimum inhibitory concentration (MIC)) | MIC ([6]; Klebsiella pneumoniae, IFO3512, read-out: minimum inhibitory concentration (MIC)) | MIC [1, 8] | MIC [2, 9] | MIC [4, 10] | MIC [5, 11] | MIC [6, 12] | concentration at 1 h [7] | concentration at 3 h [7] | concentration at 5 h [7]
1 | CO[C@H]1/C=C/O[C@@]2(C)Oc3c(C)c(O)c4c(O)c(c(/C=N/N5CCN(C)CC5)c(O)c4c3C2=O)NC(=O)/C(C)=C\C=C\[C@H](C)[C@H](O)[C@@H](C)[C@@H](O)[C@@H](C)[C@H](OC(C)=O)[C@@H]1C [Rifampicin, reference compound] | 10 µg/mL (≈ 12.2 µM) | ≤ 0.02 µg/mL | 10 µg/mL (≈ 12.2 µM) | ≤ 0.02 µg/mL | 0.04 µg/mL (≈ 0.0486 µM) | 5 µg/mL (≈ 6.08 µM) | – | – | – | – | – | – | – | –
2 | COC1C=COC2(C)Oc3c(C)c(O)c4c(=O)c(c5oc6cc(N7CCN(C)CC7)ccc6nc-5c4c3C2=O)NC(=O)C(C)=CC=CC(C)C(O)C(C)C(O)C(C)C(OC(C)=O)C1C (stereo not drawn) [compound 39] | – | – | 0.63 µg/mL (≈ 0.713 µM) | – | – | – | 1.25 µg/mL (≈ 1.42 µM) | 0.04 µg/mL (≈ 0.0453 µM) | ≤ 0.02 µg/mL | 0.04 µg/mL (≈ 0.0453 µM) | 1.25 µg/mL (≈ 1.42 µM) | – | – | –
3 | COC1C=COC2(C)Oc3c(C)c(O)c4c(=O)c(c5oc6cc(N(C)C7CCCCC7)ccc6nc-5c4c3C2=O)NC(=O)C(C)=CC=CC(C)C(O)C(C)C(O)C(C)C(OC(C)=O)C1C (stereo not drawn) [compound 12] | – | – | > 10 µg/mL | – | – | – | 1.25 µg/mL (≈ 1.4 µM) | ≤ 0.02 µg/mL | ≤ 0.02 µg/mL | ≤ 0.02 µg/mL | > 10 µg/mL | – | – | –
4 | COC1C=COC2(C)Oc3c(C)c(O)c4c(=O)c(c5oc6cc(N7CCCCC7)ccc6nc-5c4c3C2=O)NC(=O)C(C)=CC=CC(C)C(O)C(C)C(O)C(C)C(OC(C)=O)C1C (stereo not drawn) [compound 19] | – | – | 2.5 µg/mL (≈ 2.88 µM) | – | – | – | 1.25 µg/mL (≈ 1.44 µM) | ≤ 0.02 µg/mL | ≤ 0.02 µg/mL | ≤ 0.02 µg/mL | 10 µg/mL (≈ 11.5 µM) | 4900 ng/mL | 12400 ng/mL | 16600 ng/mL
5 | COC1C=COC2(C)Oc3c(C)c(O)c4c(=O)c(c5oc6cc(N7CC=CCC7)ccc6nc-5c4c3C2=O)NC(=O)C(C)=CC=CC(C)C(O)C(C)C(O)C(C)C(OC(C)=O)C1C (stereo not drawn) [compound 37] | – | – | 2.5 µg/mL (≈ 2.89 µM) | – | – | – | 1.25 µg/mL (≈ 1.44 µM) | 0.08 µg/mL (≈ 0.0924 µM) | ≤ 0.02 µg/mL | ≤ 0.02 µg/mL | > 10 µg/mL | – | – | –
6 | CCC1CCCCN1c1ccc2nc3c4c5c6c(C)c(O)c4c(=O)c(c-3oc2c1)NC(=O)C(C)=CC=CC(C)C(O)C(C)C(O)C(C)C(OC(C)=O)C(C)C(OC)C=COC(C)(O6)C5=O (stereo not drawn) [compound 25] | – | – | – | – | – | – | – | – | – | – | – | 2400 ng/mL | 6600 ng/mL | 3500 ng/mL
7 | COC1C=COC2(C)Oc3c(C)c(O)c4c(=O)c(c5oc6cc(N7CCCC7)ccc6nc-5c4c3C2=O)NC(=O)C(C)=CC=CC(C)C(O)C(C)C(O)C(C)C(OC(C)=O)C1C (stereo not drawn) [compound 18] | – | – | 2.5 µg/mL (≈ 2.93 µM) | – | – | – | 1.25 µg/mL (≈ 1.46 µM) | ≤ 0.02 µg/mL | ≤ 0.02 µg/mL | ≤ 0.02 µg/mL | 5 µg/mL (≈ 5.86 µM) | 2300 ng/mL | 4900 ng/mL | 3400 ng/mL
8 | CCCN(CCC)c1ccc2nc3c4c5c6c(C)c(O)c4c(=O)c(c-3oc2c1)NC(=O)C(C)=CC=CC(C)C(O)C(C)C(O)C(C)C(OC(C)=O)C(C)C(OC)C=COC(C)(O6)C5=O (stereo not drawn) [compound 4] | – | – | > 10 µg/mL | – | – | – | 1.25 µg/mL (≈ 1.41 µM) | ≤ 0.02 µg/mL | ≤ 0.02 µg/mL | 0.08 µg/mL (≈ 0.0905 µM) | > 10 µg/mL | 2000 ng/mL | 8500 ng/mL | 2100 ng/mL
9 | COC1C=COC2(C)Oc3c(C)c(O)c4c(=O)c(c5oc6cc(N7CCCCC7)ccc6nc-5c4c3C2=O)NC(=O)C(C)=CC=CC(C)C(O)C(C)C(O)C(C)C(O)C1C (stereo not drawn) [compound 50] | – | – | – | – | – | – | – | – | – | – | – | 700 ng/mL | 2400 ng/mL | 2800 ng/mL
10 | COC1C=COC2(C)Oc3c(C)c(O)c4c(=O)c(c5oc6cc(N7CCC7)ccc6nc-5c4c3C2=O)NC(=O)C(C)=CC=CC(C)C(O)C(C)C(O)C(C)C(OC(C)=O)C1C (stereo not drawn) [compound 17] | – | – | 2.5 µg/mL (≈ 2.98 µM) | – | – | – | 0.63 µg/mL (≈ 0.75 µM) | ≤ 0.02 µg/mL | ≤ 0.02 µg/mL | ≤ 0.02 µg/mL | 2.5 µg/mL (≈ 2.98 µM) | 4100 ng/mL | 3700 ng/mL | 2500 ng/mL
11 | COC1C=COC2(C)Oc3c(C)c(O)c4c(=O)c(c5oc6cc(N7CCCC7)ccc6nc-5c4c3C2=O)NC(=O)C(C)=CC=CC(C)C(O)C(C)C(O)C(C)C(O)C1C (stereo not drawn) [compound 49] | – | – | 1.25 µg/mL (≈ 1.54 µM) | – | – | – | 1.25 µg/mL (≈ 1.54 µM) | ≤ 0.02 µg/mL | ≤ 0.02 µg/mL | ≤ 0.02 µg/mL | 5 µg/mL (≈ 6.16 µM) | 2700 ng/mL | 3500 ng/mL | 2800 ng/mL
